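Step 1: Grow cells in 96-well plates. Step 2: Expose to compound for 48 hours at 5 concentrations. Step 3: Interpolate endpoints linearly; if unreached, use highest concentration. GI50 = concentration required for 50% inhibition of growth. TGI: concentration producing complete growth inhibition.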
Tests used:
Experiment in all cases: DTP human tumour cell line panel, 48 h
SNB-19 CNS = tested on: SNB-19 CNS
SF-539 CNS = tested on: SF-539 CNS
IGROV1 ovarian = tested on: IGROV1 ovarian
UO-31 renal = tested on: UO-31 renal
SW-620 colon = tested on: SW-620 colon
SK-MEL-5 melanoma = tested on: SK-MEL-5 melanoma
CAKI-1 renal = tested on: CAKI-1 renal
NCI-H460 lung = tested on: NCI-H460 lung
HOP-62 NSCLC = tested on: HOP-62 NSCLC
OVCAR-4 ovarian = tested on: OVCAR-4 ovarian

| Compound | GI50 (SNB-19 CNS) [µM] | TGI (SNB-19 CNS) [µM] | GI50 (SF-539 CNS) [µM] | TGI (SF-539 CNS) [µM] | GI50 (IGROV1 ovarian) [µM] | TGI (IGROV1 ovarian) [µM] | GI50 (UO-31 renal) [µM] | TGI (UO-31 renal) [µM] | GI50 (SW-620 colon) [µM] | TGI (SW-620 colon) [µM] | GI50 (SK-MEL-5 melanoma) [µM] | TGI (SK-MEL-5 melanoma) [µM] | GI50 (CAKI-1 renal) [µM] | TGI (CAKI-1 renal) [µM] | GI50 (NCI-H460 lung) [µM] | TGI (NCI-H460 lung) [µM] | GI50 (HOP-62 NSCLC) [µM] | TGI (HOP-62 NSCLC) [µM] | GI50 (OVCAR-4 ovarian) [µM] | TGI (OVCAR-4 ovarian) [µM] |
| --- | --- | --- | --- | --- | --- | --- | --- | --- | --- | --- | --- | --- | --- | --- | --- | --- | --- | --- | --- | --- |
| CC(=O)Nc1ccc(S(=O)(=O)NNC(=O)c2cccnc2Nc2ccc(Cl)cc2)cc1 | 14.1 | > 100 | 15.5 | 75.5 | 27.3 | > 100 | 91.5 | > 100 | 7.64 | > 100 | 5.68 | > 100 | 9.18 | > 100 | 4.69 | > 100 | > 100 | > 100 | 44.9 | > 100 |
| C=C1C(=O)O[C@H]2C[C@@]3(C)[C@H](O)CCC(=C)[C@@H]3[C@@H](OC(C)=O)[C@H]12 |  | 31.5 |  | 10.2 |  | 30 |  | 27 |  | > 100 |  | 26.4 |  | 3.23 |  | 25.7 |  | 32.8 |  | 20.8 |
| COc1ccc2c(c1)[n+]([O-])c(/C(C)=N/NC(=O)CC#N)c[n+]2[O-] |  | > 100 |  | > 100 |  | > 100 |  | > 100 |  | 25.8 |  | > 100 |  | > 100 |  | > 100 |  | > 100 |  | > 100 |
| COC(=O)C1=C(CS(=O)c2ccccc2[N+](=O)[O-])ON(C)C1c1ccccc1 (centres undefined) |  | > 100 |  | 56.2 |  | > 100 |  | > 100 |  | 88.6 |  | > 100 |  | > 100 |  | > 100 |  | > 100 |  | > 100 |
| O=C1CCCN1CC#CCN1CCCC1 | > 100 | > 100 | > 100 | > 100 | > 100 | > 100 | > 100 | > 100 | > 100 | > 100 | > 100 | > 100 | > 100 | > 100 | > 100 | > 100 | > 100 | > 100 | > 100 | > 100 |
| COC(=O)CCCCCN=Cc1c(O)c(O)c(C(C)C)c2cc(C)c(-c3c(C)cc4c(C(C)C)c(O)c(O)c(C=NCCCCCC(=O)OC)c4c3O)c(O)c12 | 1.21 | > 32.5 | 1.6 | > 32.5 | 1.76 | > 32.5 | 1.24 | > 32.5 | 1.37 | > 32.5 | 4.46 | 12.6 | 6.17 | > 32.5 | 1.28 | 8.42 | 1.35 | 28.1 | 1.05 | > 32.5 |
| COc1ccc(Cn2c(Cl)c(/C=C3/C(=O)Nc4ccccc43)c3cc(OC)c(C)cc32)cc1 | 4.09 | > 100 | 4.15 | > 100 | 13.3 | > 100 | 5.82 | > 100 | 3.46 | > 100 | 2.44 | 16 | 5.81 | > 100 | 5.03 | > 100 | 5.67 | > 100 | 4.01 | > 100 |
| Cc1nc(C(N)=S)sc1C(=O)C/C(=N/N)C(=O)Nc1cccc(Cl)c1C |  | > 100 |  | > 100 |  | > 100 |  | > 100 |  | > 100 |  | > 100 |  | > 100 |  | > 100 |  | > 100 |  | > 100 |
| Cc1cc2c(=O)c3ccccc3[nH]c2c(C(=O)O)c1C |  | > 100 |  | > 100 |  | > 100 |  | 87.5 |  | > 100 |  |  |  | > 100 |  | > 100 |  | > 100 |  | > 100 |
| Cc1cc(=O)oc2cc(O)c(CN(C)CC(=O)O)cc12 |  | > 100 |  | > 100 |  | > 100 |  | > 100 |  | > 100 |  | > 100 |  | > 100 |  | > 100 |  |  |  | > 100 |
| O=[N+]([O-])c1nccn1COCCBr |  | > 100 |  | > 100 |  |  |  | > 100 |  | > 100 |  | > 100 |  | > 100 |  | > 100 |  | > 100 |  | > 100 |
| COC(=O)c1c(-c2ccccc2)sc(-c2cccc3ccccc23)c1C(=O)OC |  | > 100 |  | > 100 |  | > 100 |  | > 100 |  | > 100 |  | > 100 |  | > 100 |  | > 100 |  |  |  | > 100 |
| Cc1c(Cl)cccc1NC(=O)CC1C(=O)Nc2ccccc2S1(=O)=O (centres undefined) |  | 52.3 |  | 28.7 |  | 31.7 |  | 32.1 |  | 43.7 |  | 26.7 |  | 38.8 |  | 30 |  |  |  | 67.2 |
| CCOC(=O)COS(=O)(=O)C(F)(F)F |  | > 100 |  | > 100 |  | > 100 |  | > 100 |  |  |  | > 100 |  | > 100 |  | > 100 |  | > 100 |  | > 100 |

Source: PubChem BioAssay (NCI)
